Each structure is given as a SMILES string. In brackets after ≈: the same amount, converted by molar mass.

Data set [1] in a line: aqueous solubility. Particulars: for solubility (in words): crystalline salts.
Data set [2] in a line: stability (in solution / of salts). The note with it: for stability (in words): crystalline salts.
Data set [3] in a line: conversion of prodrug to parent drug in vivo.

For the compound `C[C@@H](c1nc(-c2ccc(C#N)cc2)cs1)[C@@](Cn1cncn1)(OCOP(=O)(O)O)c1ccc(F)cc1F.NCCCC[C@H](N)C(=O)O.NCCCC[C@H](N)C(=O)O` [Example 3, Bis lysine salt of (2R,3R)-3-[4-(4-cyanophenyl)thiazol-2-yl]-2-(2,4-difluorophenyl)-1-(1H-1,2,4-triazol-1-yl)-2-[(dihydrogenphosphonoxy)methoxy]butane], the “solubility (in words)” value in data set [1] is “good solubility”. In addition, in data set [2], the “stability (in words)” value is “good solubility and stability”.
Take `C[C@@H](c1nc(-c2ccc(C#N)cc2)cs1)[C@](O)(Cn1cncn1)c1ccc(F)cc1F` [(2R,3R)-3-[4-(4-cyanophenyl)thiazol-2-yl]-2-(2,4-difluorophenyl)-1-(1 H-1,2,4-triazol-1-yl)-butan-2-ol, reference compound]: the concentration in solution in data set [1] (water, pH 6.8, water) (solubility) came to 0.6 µg/mL (≈ 0.00137 mM).
For `C[C@@H](c1nc(-c2ccc(C#N)cc2)cs1)[C@@](Cn1cncn1)(OCOP(=O)(O)O)c1ccc(F)cc1F` [Example 2, (2R,3R)-3-[4-(4-cyanophenyl)thiazol-2-yl]-2-(2,4-difluorophenyl)-1-(1H-1,2,4-triazol-1-yl)-2-[(dihydrogenphosphonoxy)methoxy]butane], the “conversion to parent drug in vivo” value in data set [3] is “readily converted to parent drug in vivo”. In addition, the solubility (usually the concentration that dissolves in the medium under given conditions) is 5000 to 6000 µg/mL (≈ 9.13 to 11 mM) in data set [1] (aqueous solution, pH 4.3, aqueous buffer) and more than 10000 µg/mL in data set [1] (aqueous solution, pH 7, aqueous buffer). Moreover, in data set [2] (in solution), the stability in solution entry is listed as “stable in solution”.
For `CC(C)(C)N.C[C@@H](c1nc(-c2ccc(C#N)cc2)cs1)[C@@](Cn1cncn1)(OCOP(=O)(O)O)c1ccc(F)cc1F` [Example 4, Tert-butyl amine salt of (2R,3R)-3-[4-(4-cyanophenyl)thiazol-2-yl]-2-(2,4-difluorophenyl)-1-(1H-1,2,4-triazol-1-yl)-2-[(dihydrogenphosphonoxy)methoxy]butane], the “solubility (in words)” value in data set [1] is listed as “good solubility”. In addition, in data set [2], the “stability (in words)” value was “good solubility and stability”.

Source of the values: patent US6448401B1, “Process for water soluble azole compounds” (Bristol-Myers Squibb Company, priority 2000, dated 2002).
